Assay results: patent US20210355086A1, “PROCESS FOR PREPARING A NOVEL PHENICOL ANTIBACTERIAL AGENT” (Zoetis Services LLC, priority 2018, published 2021)

Experiments:
[1] = test system: M. haemolytica (strain 34195); assay: M. haemolytica trans-tracheal challenge study in Holstein/Holstein cross cattle; details: for back transform LSmean percent lung lesions / mortality: end of study (6 days)
[2] = test system: A3579 (OSU-012103-BHI) strain of Mannheimia haemolytica; assay: Mannheimia haemolytica trans-tracheal challenge BRD study in dairy calves; assay type: in vivo; details: for percentage of lung lesion at necropsy, upper range value: control about 45%
Experimental: In one study, healthy dairy calves (N=15/group; 85-140 kg) were trans-tracheally infected -2 to -1 days with the […] (OSU-012103-BHI) strain of Mannheimia haemolytica. The challenge dose ranged from about […] to 4.9×10^8 CFU. On Day 0, BRD symptomatic animals received a single subcutaneous dose of saline (control) or test (20 or 40 mg/kg) compound. At necropsy, control animals presented with an upper range of lung lesions of about 45%. […] Therefore, a single dose of the Formula (1) compound administered subcutaneously was effective for the treatment of BRD caused by M. haemolytica in dairy calves.

[3] = test system: naturally occurring BRD infection; assay: Naturally occurring BRD infection treatment study in cattle; assay type: in vivo, cattle (mixed beef and/or dairy breeds); details: for treatment success based on respiratory symptoms and attitude: control about 20%
Experimental: In a second study, cattle (mixed beef and/or dairy breeds; 180-270 kg) were treated from a naturally occurring BRD infection. Animals (n=40/group) received a single subcutaneous dose of saline (control) or test (15 mg/kg or 20 mg/kg) compound. Overall, treatment success, based on respiratory symptoms (rate, mucopurulent nasal or ocular discharge, open mouth breathing) and attitude (alert, stimuli response time, muscle weakness, ataxia, swaying) was about 37% and 47% for the 15 mg/kg and 20 mg/kg dose, respectively. In contrast, control animal success was about 20%.

[4] = test system: Gram-positive bacteria and Gram-negative bacteria; details: background statement; cited from earlier work
[5] = 40 mg/kg (T02, T05) subcutaneously 4-6 hours post challenge, saline T01 35.1%
[6] = 40 mg/kg (T02, T05) subcutaneously 4-6 hours post challenge, saline T01 53.3%
[7] = T03, positive control, dose not given, subcutaneously 4-6 hours post challenge

SMILES | back transform LSmean percent lung lesions [1, 5] | mortality [1, 6] | percent lung lesions compared with T03 (Baytril) ([1]; T04 (20 mg/kg) and T05 (40 mg/kg)) | back transform LSmean percent lung lesions ([1]; T04, 20 mg/kg subcutaneously 4-6 hours post challenge, saline T01 35.1%) | mortality ([1]; T04, 20 mg/kg subcutaneously 4-6 hours post challenge, saline T01 53.3%) | percentage of lung lesion at necropsy, upper range value ([2]; 20 mg/kg single subcutaneous dose on Day 0) | percentage of lung lesion at necropsy, upper range value ([2]; 40 mg/kg single subcutaneous dose on Day 0) | treatment of BRD caused by M. haemolytica (conclusion) ([2]; single dose administered subcutaneously, dairy calves) | treatment success based on respiratory symptoms and attitude ([3]; 15 mg/kg single subcutaneous dose) | treatment success based on respiratory symptoms and attitude ([3]; 20 mg/kg single subcutaneous dose) | treatment effect in cattle with natural BRD infections (conclusion) ([3]; single subcutaneous dose 15 or 20 mg/kg) | antibacterial activity relative to thiamphenicol [4] | back transform LSmean percent lung lesions [1, 7] | mortality [1, 7]
CS(=N)(=O)c1ccc(-c2ccc([C@@H](O)[C@@H](CF)NC(=O)C(F)F)cc2)cn1 (stereo partly drawn) [Formula (1) compound, 2,2-difluoro-N-((1R,2S)-3-fluoro-1-hydroxy-1-(4-(6-(S-methylsulfonimidoyl)pyridin-3-yl)phenyl)propan-2-yl)acetamide] | 6.8% | 0% | not different | 13.3% | 0% | about 12% | ~8% | effective | about 37% | ~47% | significant treatment effect | – | – | –
CS(=O)(=O)c1ccc([C@@H](O)[C@@H](CF)NC(=O)C(Cl)Cl)cc1 [Nuflor, florfenicol, reference compound] | 32.1% | 46.7% | – | – | – | – | – | – | – | – | – | up to 10 times | – | –
CCN1CCN(c2cc3c(cc2F)c(=O)c(C(=O)O)cn3C2CC2)CC1 [Baytril, enrofloxacin, reference compound] | – | – | – | – | – | – | – | – | – | – | – | – | 9.1% | 0%
